Test results as given in patent US20190125727A1, “FIXED DOSE COMBINATION FOR PAIN RELIEF WITHOUT EDEMA” (Marina Biotech, Inc., priority 2014, published 2019).
Several values for one entry are separate records, joined by “and”; a condition that tells them apart may be missing. Equal values may be shown once.

Assays:
[1] = Celecoxib AUC from combined published pharmacokinetic data
[2] = Applicant's meta-analysis of reported edema rates in osteoarthritic populations by celecoxib dose; settings: 400 mg/day
[3] = Incidence of edema in SYMPHONY claims / ACC registry database; format: in vivo, human
Excerpt: To support this study a database was created which contains: 1) Claims data from SYMPHONY DATABASE® pertaining to anti-hypertensives, Statins, COX-2's, and NSAIDS. The data span the most recent 36 months and 2) registry data from the ACC reporting Blood Pressure (systolic/diastolic), peripheral edema flags (yes, no, missing), Heart rate, LDL, Glucose Level, Ejection fraction, GFR, Height, Weight, BJVII, and the like.
SYMPHONY DATABASE® contains true patient level data—All Data Sources be it RX or JVIX claims is tied back to individual patients which is tracked and then encrypted based on first name, last name, gender, DOB and zip code to give an accurate picture of patient level informatics year over year regardless of insurance changes.
The properties for the SYMPHONY DATABASE® are: 1) Takes CELEBREX® antihypertensive, AH, Statin or NSAID or have OA, RA or some other form of arthritis, 36 months, 2) Time Frame=Jan. 1, 2012-Dec. 31, 2014 (3 years), 3) Number of files=201, 4) Size=561 GB zipped (−2.5 TB), 5) Unique Patients=162 million, 6) Patients on CELEBREX®=4.3 million, 7) Patients that have OA=16.3 million (15.4 million only OA), 8) Patients that have RA=2.3 million (1.4 million only RA).
The properties of the ACC registry are: 1) Have 3+BP readings, 2) Time Frame=Jan. 1, 2012-Dec. 31, 2014 (3 years), 3) Number of files=2, 4) Size=590 MB, 51 MB, 5) Unique Patients=1.58 million, 6) Patients with BP readings=1.58 million, 7) Patients with Edema Flag True=870 K.
The edema rate was then measured in the aforementioned database. The incidence of edema was higher for OA patients than RA, other Arthritis, or Arthritis free patients. […] Overall OA seems to be susceptible to CELEBREX® induced edema. The results confirmed the meta-analysis shown above. […]

clinical = settings: human, in vivo, oral, 200 mg
[4] = Table 1 of CELEBREX Package Insert; cited from earlier work
[5] = Moore et al., cited from earlier work
[6] = no arthritis patients with CELEBREX
[7] = other arthritis patients with CELEBREX

## Cc1ccc(-c2cc(C(F)(F)F)nn2-c2ccc(S(N)(=O)=O)cc2)cc1 [celecoxib]
[1]; 100 mg
  AUC Max.: 3418 ng·h/mL
  AUC Med.: 3395 ng·h/mL
  AUC Min.: 2465 ng·h/mL
[1]; 200 mg
  AUC Max.: 6791 ng·h/mL
  AUC Min.: 5972 ng·h/mL
[2]
  edema event rate (upper limit and average) versus 100 or 200 mg/day dose: more than twice as high
[3]; Days of Therapy 60-120
  incidence of edema: (18.1%)
[3]; Days of Therapy 120-180
  incidence of edema: (19.3%)
[3]; Days of Therapy 180-240
  incidence of edema: (21.6%)
[3]; Days of Therapy <60
  incidence of edema: (19.4%)
[3]; Days of Therapy >240
  incidence of edema: (26.7%)
[3]; OA patients with CELEBREX
  cases of edema (%), OA: (6.0%)
  cases of edema, OA: 254
[3]; RA patients with CELEBREX
  cases of edema (%), RA: (3.3%)
  cases of edema, RA: 82
[3]; [6]
  cases of edema (%), No Arthritis: (0.4%)
  cases of edema, No Arthritis: 451
[3]; [7]
  cases of edema (%), Other Arthritis: (4.1%)
  cases of edema, Other Arthritis: 1702
clinical
  AUC: 6440 ng·h/mL
[4]
  patients treated that develop edema: 2.1%
[5]; clinical trials of celecoxib
  incidence of edema at any site, usual: about 3%
[5]; two trials
  incidence of edema in two trials: 23% and 38%

## O=C(O)Cc1ccccc1Nc1c(Cl)cccc1Cl [diclofenac]
[4]
  patients treated that develop edema: 1.0%

## CC(C)Cc1ccc(C(C)C(=O)O)cc1 (centres unmarked) [ibuprofen]
[4]
  patients treated that develop edema: 3.5%

## COc1ccc2cc([C@H](C)C(=O)O)ccc2c1 [naproxen]
[4]
  patients treated that develop edema: 2.1%
